The target in experiment [1] is T1, Sterol O-acyltransferase 1 (Rattus norvegicus, UniProt O70536).
T1 sequence (O70536 whole entry): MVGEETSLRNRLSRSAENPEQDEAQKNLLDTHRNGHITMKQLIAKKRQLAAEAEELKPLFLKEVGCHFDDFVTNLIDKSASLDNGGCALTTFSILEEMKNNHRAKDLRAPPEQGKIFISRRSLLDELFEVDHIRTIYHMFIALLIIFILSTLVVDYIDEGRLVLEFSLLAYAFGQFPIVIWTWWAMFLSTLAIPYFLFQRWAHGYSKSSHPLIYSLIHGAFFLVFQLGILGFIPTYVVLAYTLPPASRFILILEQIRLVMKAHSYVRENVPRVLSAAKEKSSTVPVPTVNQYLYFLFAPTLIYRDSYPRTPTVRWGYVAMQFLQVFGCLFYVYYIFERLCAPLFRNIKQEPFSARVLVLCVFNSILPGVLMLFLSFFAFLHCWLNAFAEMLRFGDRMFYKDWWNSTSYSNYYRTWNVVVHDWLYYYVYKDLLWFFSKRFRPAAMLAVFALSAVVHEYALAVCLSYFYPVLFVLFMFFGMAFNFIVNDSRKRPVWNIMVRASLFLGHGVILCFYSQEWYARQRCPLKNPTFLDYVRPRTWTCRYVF
Kind of experiment: In vitro inhibitory activity against acyl coenzyme A:cholesterol acyltransferase 1 in microsomes of rat liver.

Experiment [2] has as its target T2, Sterol O-acyltransferase 1 (Rattus norvegicus) (UniProt O70536).
T2 sequence (whole entry): T1 sequence (O70536 whole entry)
Kind of experiment: Chronic in vivo activity was measured by the total cholesterol concentration levels in Cholesterol-Fed Rats. Format: functional, organism-based.

In experiment [3] the target is T2, Sterol O-acyltransferase 1 (Rattus norvegicus). Kind of experiment: Chronic in vivo activity was measured by the concentration of high density lipoproteins (HDL) in cholesterol fed rats. Format: functional, organism-based.
The target is the same in experiment [4]. Kind of experiment: Acute in vivo activity was measured by the total plasma cholesterol concentration levels(TC) at dose 50 mg/kg. Format: functional, organism-based. The arrangement: dose 50 mg/kg.

pIC50: −log10 of the molar value.

As to `CC(C)c1cccc(C(C)C)c1NS(=O)(=O)NC(=O)Oc1c(C(C)(C)C)cccc1C(C)(C)C`, in experiment [1], the pIC50 (in general, the IC50 on a negative log10 scale, so that one unit is a factor of ten) is 4.77. Moreover, the figures for the Delta TC in experiment [2] and in experiment [4] were -28% and -57%, respectively. For the same compound, the Delta HDL in experiment [3] came to 200%.
On the same counts, the results for `CC(C)(C)c1cccc(C(C)(C)C)c1OC(=O)NS(=O)(=O)NC(c1ccccc1)c1ccccc1` are 4.94, -46%, -35% and 50%.

These data come from ChEMBL document CHEMBL1129522, “Inhibitors of acyl-CoA:cholesterol O-acyltransferase. 17. Structure-activity relationships of several series of compounds derived from N-chlorosulfonyl isocyanate” (J Med Chem, 1996).
